{
  "source": "paper PMC6937156",
  "about": "“The nature of the ligand’s side chain interacting with the S1'-subsite of metallocarboxypeptidase T (from Thermoactinomyces vulgaris) determines the geometry of the tetrahedral transition complex” (PLoS ONE, 2019)",
  "data": [
    {"biological_target": "T1, carboxypeptidase T (CPT) (Thermoactinomyces vulgaris, UniProt P29068)", "T1 construct": "mature enzyme; one molecule in asymmetric unit", "assay": "inhibition of tripeptide hydrolysis, integral kinetic curves at […] nm", "format": "biochemical", "units": {"Ki": "µM"}, "values": [
      {"smiles": "NS(=O)(=O)N[C@@H](Cc1ccccc1)C(=O)O", "note": "[SPhe, N-sulfamoyl-L-phenylalanine]", "Ki": 35.1},
      {"smiles": "N=C(N)NCCC[C@H](NS(N)(=O)=O)C(=O)O", "note": "[SArg, N-sulfamoyl-L-arginine]", "Ki": 340},
      {"smiles": "NS(=O)(=O)N[C@@H](CCC(=O)O)C(=O)O", "note": "[SGlu, N-(aminosulfonyl)-L-glutamic acid]", "Ki": 3090},
      {"smiles": "CC(C)C[C@H](NS(N)(=O)=O)C(=O)O", "note": "[SLeu, N-(aminosulfonyl)-L-leucine]", "Ki": 8.94}
    ]}
  ]
}
